Earlier results in US8765739B2, “Azetidine compound and pharmaceutical use thereof” (Japan Tobacco Inc., priority 2009, dated 2014).

How the values were obtained:
[1] = tested on: mice with collagen-induced arthritis
[2] = tested on: rats suffering from experimental autoimmune encephalomyelitis; details: animal model of multiple sclerosis
[3] = tested on: bone absorption induced by metastatic cancer in rat

## COc1cc(Oc2ccnc3cc(OC)c(OC)cc23)ccc1NC(=O)NC(C)c1nccs1 (stereo not drawn) [Ki20227]
[1]
  swellings and bone destructions: improves swellings and bone destructions
[2]
  condition of rats with experimental autoimmune encephalomyelitis: improves the condition
[3]
  bone absorption induced by metastatic cancer: improves bone absorption
